In patent US20240279520A1, “FLUORINE SUBSTITUTED ETHERS AND COMPOSITIONS, METHODS AND USES INCLUDING SAME” (Honeywell International Inc., priority 2022, published 2024):

Columns and labels:
Type in all cases: physicochemical
[1] = Boiling point of fluoroethers; conditions: for Boiling point: Table 2; for Bp: Table 5
Density of fluoroethers = conditions: Table 2
[2] = Experimental dielectric property measurements, Agilent 85070 Dielectric Probe; conditions: for Dielectric Constant (20 GHz): room temperature; for Experimental Dk at 1 GHz / Experimental Loss Tangent at 1 GHZ: ambient pressure, approximately 23° C.
Method: “Dielectric Constant” means the dielectric constant as measured at room temperature at 20 giga hertz (GHz).
Experimental dielectric property measurements were made on all liquids using the Agilent 85070 Dielectric Probe. All measurements were made at ambient pressure and room temperature (approximately 23° C.). Prior to making measurements, the system was calibrated from 1 GHz to 20 GHz with an open circuit, a short circuit, and DI water (@22.4° C.) standard. The result of the calibration is shown in the Table 5 below for DI H2O, and is consistent with DI water at 22.4° C. The accuracy of the probe is given as: Dielectric constant, er′=er′+/−0.05|er*| with er″=er″+/−0.05|er*| and (loss=er″/er′).

For FC(F)OC(C(F)(F)F)C(F)(F)F [Compound 3, 2-(difluoromethoxy)-1,1,1,3,3,3-hexafluoropropane], which Boiling point [1] is on record?
Its Boiling point is 41 °C.

What about the Bp [1] of the same compound?
The Bp was 41 °C.

And the Density (Density of fluoroethers)?
The Density was 1.3-1.7.

What about the “Dielectric Constant (20 GHz)” value [2] of the same compound?
Its value is less than 5.

Which Boiling point [1] does the source give for FC(F)OCC(F)(F)C(F)F [Compound 1, 3-(difluoromethoxy)-1,1,2,2-tetrafluoropropane] here?
The Boiling point was 76 °C.

And the Bp [1]?
The Bp was 76 °C.

And the Density (Density of fluoroethers)?
Its Density is 1.3-1.7.

And the “Experimental Dk at 1 GHz” value [2]?
Its value is 2.94.

What about the “Experimental Loss Tangent at 1 GHZ” value [2] of the same compound?
Its value is 0.036.

What about the “Dielectric Constant (20 GHz)” value [2] of the same compound?
Its value is 4.0.

Which Boiling point [1] does the source give for FC(F)OCC(F)(F)C(F)(F)F [Compound 2, 3-(difluoromethoxy)-1,1,1,2,2-pentafluoropropane] here?
Its Boiling point is 46 °C.

What about the Bp [1] of the same compound?
The Bp was 46 °C.

What about the Density (Density of fluoroethers) of the same compound?
Its Density is 1.3-1.7.

And the “Experimental Dk at 1 GHz” value [2]?
Its value is 5.21.

What about the “Experimental Loss Tangent at 1 GHZ” value [2] of the same compound?
The value was 0.038.

And the “Dielectric Constant (20 GHz)” value [2]?
The value was 3.4.

Which Boiling point [1] does the source give for FC(F)OCC(F)(F)C(F)(F)C(F)(F)F [Compound 4, 4-(difluoromethoxy)-1,1,1,2,2,3,3-heptafluorobutane] here?
The Boiling point was 69 °C.

What about the Bp [1] of the same compound?
The Bp was 69 °C.

And the Density (Density of fluoroethers)?
The Density was 1.3-1.7.

And the “Experimental Dk at 1 GHz” value [2]?
The value was 4.51.

What about the “Experimental Loss Tangent at 1 GHZ” value [2] of the same compound?
Its value is 0.054.

And the “Dielectric Constant (20 GHz)” value [2]?
Its value is 2.8.

For O [DI Water, reference compound], which Bp [1] is on record?
The Bp was 100 °C.

What about the “Experimental Dk at 1 GHz” value [2] of the same compound?
Its value is 79.15.

And the “Experimental Loss Tangent at 1 GHZ” value [2]?
Its value is 0.052.
